According to patent US12084434B2 (Scorpion Therapeutics, Inc., priority 2021, dated 2024):
Read-outs that look alike come from different tables or passages of the source.

Test system: T47D pAKT (S473), PI3Kα H1047R mutation present
Assay: HTRF pAKT-T47D;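 further: assay medium was RPMI with 10% FBS and 0.2 units/ml bovine insulin, without phenol red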
[1] = read-out: T47D pAKT IC50, T47D.1 cells, pAKT (S473) HTRF, 1 hour
[2] = Homo sapiens, T47D, 1 h, read-out: T47D pAKT IC50 (nM), T47D.1 cells, pAKT (S473) HTRF, 1 hour

With `Cc1c(C(NC(=O)Nc2cnc(N3CC(C)(O)C3)nc2)C(F)(F)F)oc2c(Cl)cc(F)cc12` (single isomer, unassigned) [Compound 202, 1-(1-(7-chloro-5-fluoro-3-methylbenzofuran-2-yl)-2,2,2-trifluoroethyl)-3-(2-(3-hydroxy-3-methylazetidin-1-yl)pyrimidin-5-yl)urea] the IC50 [1] was < 1000 nM.

For `Cc1c(C(NC(=O)Nc2cnc(N)nc2)C(F)(F)F)oc2c(C)cc(F)cc12` (single isomer, unassigned) [Compound 213, 1-(2-aminopyrimidin-5-yl)-3-[2,2,2-trifluoro-1-(5-fluoro-3,7-dimethyl-1-benzofuran-2-yl)ethyl]urea], the IC50 [1] was > 5000 nM.

In the case of `Cc1c(C(NC(=O)Nc2cnc(N)nc2)C(F)(F)F)oc2c(C)cc(F)cc12` (single isomer, unassigned) [Compound 214, 1-(2-aminopyrimidin-5-yl)-3-[2,2,2-trifluoro-1-(5-fluoro-3,7-dimethyl-1-benzofuran-2-yl)ethyl]urea], the IC50 [1] is reported as < 1000 nM.

`Cc1c(C(NC(=O)Nc2cnc(N)nc2)C(F)(F)F)oc2c(Br)cc(F)cc12` (single isomer, unassigned) [Compound 215, 1-(2-aminopyrimidin-5-yl)-3-[1-(7-bromo-5-fluoro-3-methyl-1-benzofuran-2-yl)-2,2,2-trifluoroethyl]urea] was tested, and the IC50 [2] was 1000 to 5000 nM.

`Cc1c(C(NC(=O)Nc2cnc(N)nc2)C(F)(F)F)oc2c(Br)cc(F)cc12` (single isomer, unassigned) [Compound 216, 1-(2-aminopyrimidin-5-yl)-3-[1-(7-bromo-5-fluoro-3-methyl-1-benzofuran-2-yl)-2,2,2-trifluoroethyl]urea] was tested, and the IC50 [1] was < 1000 nM.

For `Cc1c(C(NC(=O)Nc2cnc(N)nc2)C(F)(F)F)oc2c(C3CC3)cc(F)cc12` (single isomer, unassigned) [Compound 217, 1-(2-aminopyrimidin-5-yl)-3-[1-(7-cyclopropyl-5-fluoro-3-methyl-1-benzofuran-2-yl)-2,2,2-trifluoroethyl]urea], the IC50 [1] was > 5000 nM.

With `Cc1c(C(NC(=O)Nc2cnc(N)nc2)C(F)(F)F)oc2c(C3CC3)cc(F)cc12` (single isomer, unassigned) [Compound 218, 1-(2-aminopyrimidin-5-yl)-3-[1-(7-cyclopropyl-5-fluoro-3-methyl-1-benzofuran-2-yl)-2,2,2-trifluoroethyl]urea] the IC50 [1] was < 1000 nM.

In the case of `Cc1c(C(NC(=O)Nc2cnc(N)nc2)C(F)(F)F)oc2c(C#N)cc(F)cc12` (single isomer, unassigned) [Compound 219, 1-(2-aminopyrimidin-5-yl)-3-[1-(7-cyano-5-fluoro-3-methyl-1-benzofuran-2-yl)-2,2,2-trifluoroethyl]urea], the IC50 [2] is reported as 1000 to 5000 nM.

`Cc1c(C(NC(=O)Nc2cnc(N)nc2)C(F)(F)F)oc2c(C#N)cc(F)cc12` (single isomer, unassigned) [Compound 220, 1-(2-aminopyrimidin-5-yl)-3-[1-(7-cyano-5-fluoro-3-methyl-1-benzofuran-2-yl)-2,2,2-trifluoroethyl]urea] was tested, and the IC50 [1] was < 1000 nM.

Work on `Cc1c(C(NC(=O)Nc2ccc(N)cc2)C(F)(F)F)oc2c(F)cc(F)cc12` (single isomer, unassigned) [Compound 221, 1-(4-aminophenyl)-3-(1-(5,7-difluoro-3-methylbenzofuran-2-yl)-2,2,2-trifluoroethyl)urea] yielded an IC50 [2] of 1000 to 5000 nM.

In the case of `Cc1c(C(NC(=O)Nc2ccc(N)cc2)C(F)(F)F)oc2c(F)cc(F)cc12` (single isomer, unassigned) [Compound 222, 1-(4-aminophenyl)-3-(1-(5,7-difluoro-3-methylbenzofuran-2-yl)-2,2,2-trifluoroethyl)urea], the IC50 [1] is reported as < 1000 nM.

`Cc1c(C(NC(=O)Nc2cnc(N3CCC3)nc2)C(F)(F)F)oc2c(F)cc(F)cc12` (single isomer, unassigned) [Compound 223, 1-(2-(azetidin-1-yl)pyrimidin-5-yl)-3-(1-(5,7-difluoro-3-methylbenzofuran-2-yl)-2,2,2-trifluoroethyl)urea] was tested, and the IC50 [2] was < 1000 nM.

`Cc1c(C(NC(=O)Nc2cnc(N3CCC3)nc2)C(F)(F)F)oc2c(F)cc(F)cc12` (single isomer, unassigned) [Compound 224, 1-(2-(azetidin-1-yl)pyrimidin-5-yl)-3-(1-(5,7-difluoro-3-methylbenzofuran-2-yl)-2,2,2-trifluoroethyl)urea] was tested, and the IC50 [1] was 1000 to 5000 nM.

In the case of `Cc1c(C(NC(=O)Nc2cnc(N3CC(F)C3)nc2)C(F)(F)F)oc2c(F)cc(F)cc12` (single isomer, unassigned) [Compound 225, 1-(1-(5,7-difluoro-3-methylbenzofuran-2-yl)-2,2,2-trifluoroethyl)-3-(2-(3-fluoroazetidin-1-yl)pyrimidin-5-yl)urea], the IC50 [2] is reported as 1000 to 5000 nM.

`Cc1c(C(NC(=O)Nc2cnc(N3CC(F)C3)nc2)C(F)(F)F)oc2c(F)cc(F)cc12` (single isomer, unassigned) [Compound 226, 1-(1-(5,7-difluoro-3-methylbenzofuran-2-yl)-2,2,2-trifluoroethyl)-3-(2-(3-fluoroazetidin-1-yl)pyrimidin-5-yl)urea] was tested, and the IC50 [1] was < 1000 nM.

`CNC(=O)c1ncc(NC(=O)N[C@H](c2oc3ccc(F)cc3c2C)C(C)C)cn1` [Compound 77, (S)-5-(3-(1-(5-fluoro-3-methylbenzofuran-2-yl)-2-methylpropyl)ureido)-N-methylpyrimidine-2-carboxamide] gave an IC50 [2] of 1000 to 5000 nM.

`Cc1c([C@@H](NC(=O)Nc2cnc(C(N)=O)nc2)C(C)C)oc2ccc(F)cc12` [Compound 78, (S)-5-(3-(1-(5-fluoro-3-methylbenzofuran-2-yl)-2-methylpropyl)ureido)pyrimidine-2-carboxamide] showed an IC50 [2] of 1000 to 5000 nM.

`Cc1c([C@@H](NC(=O)Nc2cnc(N)nc2)C2(F)CC2)oc2ccc(F)cc12` [Compound 81, (R)-1-(2-aminopyrimidin-5-yl)-3-((5-fluoro-3-methylbenzofuran-2-yl)(1-fluorocyclopropyl)methyl)urea] was tested, and the IC50 [2] was < 1000 nM.

`Cc1c([C@@H](NC(=O)Nc2cnc(N)nc2)C2(C)CC2)oc2ccc(F)cc12` [Compound 84, (S)-1-(2-aminopyrimidin-5-yl)-3-((5-fluoro-3-methylbenzofuran-2-yl)(1-methylcyclopropyl)methyl)urea] was tested, and the IC50 [2] was < 1000 nM.

For `Cc1c([C@@H](NC(=O)Nc2ncc(N)cn2)C(C)(C)C)oc2ccc(F)cc12` [Compound 86, (S)-1-(5-aminopyrimidin-2-yl)-3-(1-(5-fluoro-3-methylbenzofuran-2-yl)-2,2-dimethylpropyl)urea], the IC50 [2] was < 1000 nM.

For `Cc1c([C@@H](NC(=O)Nc2cnc(N3CC(O)C3)nc2)C(C)C)oc2ccc(F)cc12` [Compound 87, (S)-1-(1-(5-fluoro-3-methylbenzofuran-2-yl)-2-methylpropyl)-3-(2-(3-hydroxyazetidin-1-yl)pyrimidin-5-yl)urea], the IC50 [2] was < 1000 nM.

`Cc1c([C@@H](NC(=O)Nc2cnc(N3CC(O)C3)nc2)C(F)(F)F)oc2ccc(F)cc12` [Compound 89, (R)-1-(2-(3-hydroxyazetidin-1-yl)pyrimidin-5-yl)-3-(2,2,2-trifluoro-1-(5-fluoro-3-methylbenzofuran-2-yl)ethyl)urea] was tested, and the IC50 [2] was < 1000 nM.

In the case of `Cc1c([C@@H](NC(=O)Nc2cnc(N3CC(F)C3)nc2)C(F)(F)F)oc2ccc(F)cc12` [Compound 95, (R)-1-(2-(3-fluoroazetidin-1-yl)pyrimidin-5-yl)-3-(2,2,2-trifluoro-1-(5-fluoro-3-methylbenzofuran-2-yl)ethyl)urea], the IC50 [2] is reported as < 1000 nM.

`Cc1c([C@@H](NC(=O)Nc2cnc(N3CC(C)(O)C3)nc2)C(C)C)oc2ccc(F)cc12` [Compound 96, (S)-1-(1-(5-fluoro-3-methylbenzofuran-2-yl)-2-methylpropyl)-3-(2-(3-hydroxy-3-methylazetidin-1-yl)pyrimidin-5-yl)urea] was tested, and the IC50 [2] was < 1000 nM.

In the case of `Cc1c([C@@H](NC(=O)Nc2cnc(N3CC(C)(O)C3)nc2)C(F)(F)F)oc2ccc(F)cc12` [Compound 98, (R)-1-(2-(3-hydroxy-3-methylazetidin-1-yl)pyrimidin-5-yl)-3-(2,2,2-trifluoro-1-(5-fluoro-3-methylbenzofuran-2-yl)ethyl)urea], the IC50 [2] is reported as < 1000 nM.

Work on `Cc1c([C@H](C)NC(=O)Nc2cnc(N)nc2)oc2ccc(F)cc12` [Compound 101, (S)-1-(2-aminopyrimidin-5-yl)-3-(1-(5-fluoro-3-methylbenzofuran-2-yl)ethyl)urea] yielded an IC50 [2] of 1000 to 5000 nM.

With `Cc1c([C@@H](NC(=O)Nc2ccc3c(c2)C(=O)OC3)C(C)C)oc2ccc(F)cc12` [Compound 102, 3-[(1S)-1-(5-fluoro-3-methyl-1-benzofuran-2-yl)-2-methylpropyl]-1-(3-oxo-1H-2-benzofuran-5-yl)urea] the IC50 [2] was 1000 to 5000 nM.

`Cc1c([C@@H](NC(=O)Nc2ccc3c(c2)C(=O)N(C)C3)C(C)C)oc2ccc(F)cc12` [Compound 103] showed an IC50 [2] of 1000 to 5000 nM.

For `CNC(=O)c1cc(NC(=O)N[C@H](c2oc3ccc(F)cc3c2C)C(C)C)ccc1OC` [Compound 104], the IC50 [2] was < 1000 nM.

Work on `Cc1c([C@@H](NC(=O)Nc2cccc(N3CCC3=O)c2)C(C)C)oc2ccc(F)cc12` [Compound 105] yielded an IC50 [2] of 1000 to 5000 nM.

`Cc1c([C@@H](NC(=O)Nc2cnc(N3CCNCC3)nc2)C(C)C)oc2ccc(F)cc12` [Compound 106, (S)-1-(1-(5-fluoro-3-methylbenzofuran-2-yl)-2-methylpropyl)-3-(2-(piperazin-1-yl)pyrimidin-5-yl)urea] showed an IC50 [2] of 1000 to 5000 nM.

With `Cc1c([C@@H](NC(=O)Nc2cnc(N3CCOCC3)nc2)C(C)C)oc2ccc(F)cc12` [Compound 107] the IC50 [2] was < 1000 nM.

Compound `Cc1c([C@@H](NC(=O)Nc2cnc(C(=O)N(C)C)s2)C(C)C)oc2ccc(F)cc12` [Compound 121, (S)-5-(3-(1-(5-fluoro-3-methylbenzofuran-2-yl)-2-methylpropyl)ureido)-N,N-dimethylthiazole-2-carboxamide] has an IC50 [2] of 1000 to 5000 nM.

For `Cc1c([C@@H](NC(=O)Nc2csc(C(N)=O)c2)C(C)C)oc2ccc(F)cc12` [Compound 123, (S)-4-(3-(1-(5-fluoro-3-methylbenzofuran-2-yl)-2-methylpropyl)ureido)thiophene-2-carboxamide], the IC50 [2] was 1000 to 5000 nM.

With `Cc1c([C@@H](NC(=O)Nc2ccc3nc[nH]c(=O)c3c2)C(C)C)oc2ccc(F)cc12` [Compound 124, (S)-1-(1-(5-fluoro-3-methylbenzofuran-2-yl)-2-methylpropyl)-3-(4-oxo-3,4-dihydroquinazolin-6-yl)urea] the IC50 [2] was 1000 to 5000 nM.
